From patent US20070203118A1, “SUBSTITUTED TETRAHYDROISOQUINOLINES USED IN THE FORM OF MMP INHIBITORS, METHOD FOR THE PRODUCTION AND USE THEREOF IN THE FORM OF DRUGS” (SANOFI-AVENTIS DEUTSCHLAND GMBH, priority 2004, published 2007)

Tests used:
Assay type in all cases: biochemical
[1] = molecular target: T1, catalytic domain of human stromelysin (MMP-3) (Homo sapiens, UniProt P08254); assay: Enzymatic activity of the catalytic domain of human stromelysin (MMP-3), fluorogenic substrate
T1 construct: Preparation and Determination of the Enzymatic Activity of the Catalytic Domain of Human Stromelysin (MMP-3); made in house
Description: Preparation and Determination of the Enzymatic Activity of the Catalytic Domain of Human Stromelysin (MMP-3) and of Neutrophil Collagenase (MMP-8)
The two enzymes stromelysin (MMP-3) and neutrophil collagenase (MMP-8) were prepared by the method of Ye et al. (Biochemistry; 31 (1992) pages 11 231-11 235). The enzymic activity or the effect of the enzyme inhibitor was measured by incubating 10 μl of enzyme solution with 10 μl of a 3% strength (v/v) buffered dimethyl sulfoxide solution which contained the enzyme inhibitor where appropriate, for 15 minutes. After addition of 10 μl of a 3% strength (v/v) aqueous dimethyl sulfoxide solution which contained 1 mmol/l of the substrate, the enzymic reaction was followed by fluorescence spectroscopy (328 nm (ex)/393 nm(em)). The enzymic activity is presented as increase in extinction/minute.
The IC50 values listed in Table 4 were determined as the inhibitor concentrations leading in each case to 50% inhibition of the enzyme. The buffer solution contained 0.05% Brij (Sigma, Deisenhofen, Germany) and 0.1 mol/l Tris/HCl, 0.1 mol/l NaCl, 0.01 mol/l CaCl2 and 0.1 mol/l piperazine-N,N′-bis[2-ethanesulfonic acid] (pH=7.5).
The MMP-3 enzyme solution contained 2.3 μg/ml and the MMP-8 enzyme solution 0.6 μg/ml of one of the enzyme domains prepared by the method of Ye et al. The substrate solution contained 1 mmol/l of the fluorogenic substrate (7-methoxycoumarin-4-yl)acetyl-Pro-Leu-Gly-Leu-3-(2′,4′-dinitrophenyl)-L-2,3-diaminopropionyl-Ala-Arg-NH2 (Bachem, Heidelberg, Germany).

[2] = molecular target: T2, catalytic domain of human gelatinase-A (MMP-2) (Homo sapiens, UniProt P08253); assay: Enzymatic activity of the catalytic domain of human gelatinase-A (MMP-2), fluorogenic substrate
T2 construct: Determination of the Enzymatic Activity of the Catalytic Domain of Human Gelatinase-A (MMP-2); purchased INVITEK, Berlin
T2 sequence (P08253 110-660): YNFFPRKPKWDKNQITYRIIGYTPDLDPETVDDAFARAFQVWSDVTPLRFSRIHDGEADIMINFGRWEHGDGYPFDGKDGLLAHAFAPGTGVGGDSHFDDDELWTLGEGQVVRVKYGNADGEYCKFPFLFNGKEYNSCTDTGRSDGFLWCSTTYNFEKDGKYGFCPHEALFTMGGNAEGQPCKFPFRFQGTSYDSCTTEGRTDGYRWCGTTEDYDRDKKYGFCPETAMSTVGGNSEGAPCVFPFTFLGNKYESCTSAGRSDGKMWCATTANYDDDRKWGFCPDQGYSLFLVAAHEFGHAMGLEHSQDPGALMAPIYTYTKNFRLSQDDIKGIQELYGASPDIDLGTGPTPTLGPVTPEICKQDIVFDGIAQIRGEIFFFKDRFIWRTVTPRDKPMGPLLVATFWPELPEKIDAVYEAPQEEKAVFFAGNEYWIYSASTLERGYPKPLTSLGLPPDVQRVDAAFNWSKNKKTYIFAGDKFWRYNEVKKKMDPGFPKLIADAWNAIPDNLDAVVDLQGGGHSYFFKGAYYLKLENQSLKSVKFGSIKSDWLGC
Description: Determination of the Enzymatic Activity of the Catalytic Domain of Human Gelatinase-A (MMP-2)
(§1) Activation of the proenzyme: 2 parts by volume of proenzyme were incubated with 1 part by volume of APMA solution at 37° C. for 0.5 hours. The APMA solution was prepared from a 10 mmol/l p-aminophenylmercuric acetate solution in 0.1 mmol/l NaOH by dilution with 3 parts by volume of Tris/HCl buffer pH 7.5 (see below). The pH was adjusted to between 7.0 and 7.5 by adding 1 mmol/l HCl. After activation of the enzyme it was diluted with the Tris/HCl buffer to a concentration of 0.83 μg/ml.
(§2) The enzymic activity was measured by incubating 10 μl of enzyme solution with 10 μl of a 3% strength (v/v) buffered dimethyl sulfoxide solution (reaction 1) for 15 minutes. The enzyme inhibitor activity was measured by incubating 10 μl of enzyme solution with 10 μl of a 3% strength (v/v) buffered dimethyl sulfoxide solution which contained the enzyme inhibitor (reaction 2).
The enzymic reaction both in the case of reaction 1 and in the case of reaction 2 was followed after addition of 10 μl of a 3% strength (v/v) aqueous dimethyl sulfoxide solution which contained 0.3 mmol/l of the substrate by fluorescence spectroscopy (328 nm (extinction)/393 nm (emission)).
(§3) The enzymic activity has been presented as increase in extinction/minute.
(§4) The effect of the inhibitor was calculated as percentage inhibition by the following formula: % inhibition=100−[(increase in extinction/minute in reaction 2)/(increase in extinction/minute in reaction 1)×100].
(§5) The IC50, which is the concentration of inhibitor which is necessary for 50% inhibition of the enzymic activity, was determined graphically by plotting the percentage inhibitions at various inhibitor concentrations.
(§6) The buffer solution contained 0.05% Brij (Sigma, Deisenhofen, Germany) and 0.1 mol/l Tris/HCl, 0.1 mol/l NaCl, 0.01 mol/l CaCl2 (pH=7.5). The enzyme solution contained 10.83 μg/ml of the enzyme domain. The substrate solution contained 0.3 mmol/l of the fluorogenic substrate (7-methoxycoumarin-4-yl)acetyl-Pro-Leu-Gly-Leu-3-(2′,4′-dinitrophenyl)-L-2,3-diaminopropionyl-Ala-Arg-NH2 (Bachem, Heidelberg, Germany).

[3] = molecular target: T3, catalytic domain of human gelatinase-A (MMP-9) (Homo sapiens, UniProt P14780); assay: Enzymatic activity of the catalytic domain of human gelatinase (MMP-9), fluorogenic substrate; conditions: for MMP9:MMP1, selectivity of inhibition of MMP-9 in relation to MMP-1: ratio of the IC50 values of Table 4
T3 construct: Determination of the Enzymatic Activity of the Catalytic Domain of Human Gelatinase-A (MMP-9); purchased Roche, Mannheim
Description: Determination of the Enzymatic Activity of the Catalytic Domain of Human Gelatinase-A (MMP-9)
Activation of the proenzyme:
as §1, with “2” for “Activation of the proenzyme: 2”, “4” for “0.5”, “4.2 mU/ml.” for “0.83 μg/ml.”
as §2
The enzymic reaction both in the case of reaction 1 and in the case of reaction 2 was followed after addition of 10 μl of a 3% strength (v/v) aqueous dimethyl sulfoxide solution which contained 0.15 mmol/l of the substrate by fluorescence spectroscopy (328 nm (extinction)/393 nm (emission)).
as §3, §4, §5
as §6, with “4.2 mU/ml” for “10.83 μg/ml”, “0.15” for “0.3”

T3 sequence (P14780 107-707 limits assumed): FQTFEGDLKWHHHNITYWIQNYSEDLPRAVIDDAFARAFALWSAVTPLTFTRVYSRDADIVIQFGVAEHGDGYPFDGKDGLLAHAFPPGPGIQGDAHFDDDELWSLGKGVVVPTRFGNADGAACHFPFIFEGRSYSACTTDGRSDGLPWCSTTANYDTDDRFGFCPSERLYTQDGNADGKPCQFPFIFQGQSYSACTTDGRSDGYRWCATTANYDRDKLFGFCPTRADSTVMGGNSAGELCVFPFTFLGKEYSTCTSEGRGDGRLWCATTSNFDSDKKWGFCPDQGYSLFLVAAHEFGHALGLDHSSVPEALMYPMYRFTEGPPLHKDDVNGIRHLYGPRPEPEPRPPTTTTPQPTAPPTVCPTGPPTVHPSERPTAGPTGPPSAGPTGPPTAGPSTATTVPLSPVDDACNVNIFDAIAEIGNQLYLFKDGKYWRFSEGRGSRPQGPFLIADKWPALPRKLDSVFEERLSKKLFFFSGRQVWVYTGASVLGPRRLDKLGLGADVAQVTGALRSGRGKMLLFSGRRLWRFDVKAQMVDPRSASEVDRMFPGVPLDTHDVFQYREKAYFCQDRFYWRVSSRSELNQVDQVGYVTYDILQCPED
T1 sequence (P08254 100-272 limits assumed): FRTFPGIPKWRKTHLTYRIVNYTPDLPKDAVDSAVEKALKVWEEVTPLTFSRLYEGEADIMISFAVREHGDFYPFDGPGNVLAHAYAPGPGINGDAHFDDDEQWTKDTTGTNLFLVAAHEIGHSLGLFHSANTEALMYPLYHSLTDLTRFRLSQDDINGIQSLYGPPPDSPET

Compound	IC50 [1]	IC50 [2]	IC50 [3]	MMP9:MMP1, selectivity of inhibition of MMP-9 in relation to MMP-1 [3]
O=C(NO)[C@H]1c2ccccc2CCN1S(=O)(=O)c1ccc(Oc2ccncc2)cc1 [Compound 11]	0.025 µM	0.0023 µM	0.0018 µM	78
O=C(NO)[C@H]1c2ccccc2CCN1S(=O)(=O)c1ccc(Oc2ccc(OC(F)(F)F)cc2)nc1 [Compound 43, (R)-2-[6-(4-trifluoromethoxyphenoxy)pyridine-3-sulfonyl]-1,2,3,4-tetrahydro-isoquinoline-1-hydroxycarboxamide]	0.3 µM	0.023 µM	0.02 µM	>500
O=C(NO)[C@H]1c2ccccc2CCN1S(=O)(=O)c1ccc(Oc2ccc(Cl)cc2)nc1 [Compound 45, (R)-2-[6-(4-chlorophenoxy)pyridine-3-sulfonyl]-1,2,3,4-tetrahydroisoquinoline-1-hydroxycarboxamide]	0.045 µM	0.002 µM	0.003 µM	667
2-{2-[4-(4-fluorophenoxy)phenyl]ethanesulfonyl}-1,2,3,4-tetrahydroisoquinoline-1-hydroxycarboxamide [Compound 20]	0.023 µM	0.002 µM	0.0013 µM	231
O=C(NO)[C@H]1c2ccccc2CCN1S(=O)(=O)c1ccc(Oc2ccc(C(F)(F)F)cc2)cc1 [Compound 21, (R)-2-[4-(4-trifluoromethylphenoxy)benzenesulfonyl]-1,2,3,4-tetrahydro-isoquinoline-1-hydroxycarboxamide]	0.033 µM	0.0022 µM	0.0032 µM	313
O=C(NO)[C@H]1c2ccccc2CCN1S(=O)(=O)c1ccc(Oc2ccc(Cl)cc2)cc1 [Compound 9]	0.023 µM	0.002 µM	0.001 µM	2
COc1cc2c(cc1OC)[C@@H](C(=O)NO)N(S(=O)(=O)c1ccc(-c3ccc(Cl)cc3)cc1)CC2 [Compound 15]	0.02 µM	0.001 µM	0.001 µM	300
(R)-4-(1-hydroxycarbamoyl-3,4-dihydro-1H-isoquinoline-2-sulfonyl)phenyl benzoate [Compound 48]	0.026 µM	0.002 µM	0.002 µM	
O=C(NO)[C@H]1c2ccccc2CCN1S(=O)(=O)c1ccc(Oc2ccc(OCC(F)(F)F)cc2)cc1 [Compound 22]	0.52 µM	0.025 µM	0.018 µM	89
COc1ccc(F)c2c1[C@H](C(=O)NO)N(S(=O)(=O)c1ccc(-c3ccc(Cl)cc3)cc1)CC2 [Compound 18]	0.8 µM	0.0045 µM	0.06 µM	67
